In PubChem BioAssay AID248 (DTP/NCI, 2004):
Where “and” joins values, the source holds several entries; their conditions need not be identical. Identical values can stand only once. Inconclusive results and toxic doses are left out.

Test system: L1210 leukemia ip in BDF1 mice, survival T/C
Assay: NCI In Vivo Anticancer Drug Screen. Data for tumor model L1210 Leukemia (intraperitoneal) in B6D2F1 (BDF1) mice
Conditions: higher = longer survival
Summary of the method: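 Tumor cells were implanted, animals were treated, and survival was followed. The result divides the treated measurement by the vehicle-control measurement.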

With `CS(=O)(=O)OCCCNCCCOS(C)(=O)=O` the T/C (endpoint: mean survival time, dose: 3.0 mg/kg/injection, schedule: Q03HX024 (ip), vehicle: saline) was 122 % of control, the T/C (endpoint: mean survival time, dose: 5.0 mg/kg/injection, schedule: Q03HX008 (ip), vehicle: saline) was 119 % of control and the T/C (endpoint: mean survival time, dose: 5.0 mg/kg/injection, schedule: Q03HX024 (ip), vehicle: saline) was 152 % of control. The T/C (endpoint: mean survival time, dose: 8.4 mg/kg/injection, schedule: Q01DX009 (ip), vehicle: saline) was 160 % of control and 173 % of control, the T/C (endpoint: mean survival time, dose: 8.4 mg/kg/injection, schedule: Q03HX008 (ip), vehicle: saline) was 150 % of control and the T/C (endpoint: mean survival time, dose: 8.4 mg/kg/injection, schedule: Q03HX016 (ip), vehicle: saline) was 156 % of control. The T/C (endpoint: mean survival time, dose: 8.4 mg/kg/injection, schedule: Q03HX024 (ip), vehicle: saline) was 155 % of control and 245 % of control, the T/C (endpoint: mean survival time, dose: 14.0 mg/kg/injection, schedule: Q01DX009 (oral), vehicle: saline) was 100 % of control and the T/C (endpoint: mean survival time, dose: 14.0 mg/kg/injection, schedule: Q01DX015 (ip), vehicle: saline) was 155 % of control. For the same compound, the T/C (endpoint: mean survival time, dose: 14.0 mg/kg/injection, schedule: Q03HX008 (ip), vehicle: saline) was 166 % of control and 239 % of control, the T/C (endpoint: mean survival time, dose: 14.0 mg/kg/injection, schedule: Q03HX016 (ip), vehicle: saline) was 188 % of control and 303 % of control and the T/C (endpoint: mean survival time, dose: 14.0 mg/kg/injection, schedule: Q03HX024 (ip), vehicle: saline) was 332 % of control and 344 % of control. The T/C (endpoint: mean survival time, dose: 20.0 mg/kg/injection, schedule: Q01DX009 (ip), vehicle: saline) was 164 % of control and 179 % of control, the T/C (endpoint: mean survival time, dose: 21.0 mg/kg/injection, schedule: Q01DX015 (ip), vehicle: saline) was 155 % of control and the T/C (endpoint: mean survival time, dose: 23.0 mg/kg/injection, schedule: Q01DX009 (oral), vehicle: saline) was 115 % of control. The T/C (endpoint: mean survival time, dose: 23.0 mg/kg/injection, schedule: Q03HX008 (ip), vehicle: saline) was 184 % of control and 327 % of control, the T/C (endpoint: mean survival time, dose: 23.0 mg/kg/injection, schedule: Q03HX016 (ip), vehicle: saline) was 244 % of control and 440 % of control and the T/C (endpoint: mean survival time, dose: 23.0 mg/kg/injection, schedule: Q04DX003 (iv), vehicle: saline) was 98 % of control. The T/C (endpoint: mean survival time, dose: 25.0 mg/kg/injection, schedule: Q01DX001 (ip), vehicle: saline) was 115 % of control, the T/C (endpoint: mean survival time, dose: 36.0 mg/kg/injection, schedule: Q01DX015 (ip), vehicle: saline) was 242 % of control and the T/C (endpoint: mean survival time, dose: 39.0 mg/kg/injection, schedule: Q01DX003 (ip), vehicle: saline) was 164 % of control and 170 % of control. For the same compound, the T/C (endpoint: mean survival time, dose: 39.0 mg/kg/injection, schedule: Q01DX005 (ip), vehicle: saline) was 190 % of control, the T/C (endpoint: mean survival time, dose: 39.0 mg/kg/injection, schedule: Q01DX009 (sc), vehicle: saline) was 120 % of control and the T/C (endpoint: mean survival time, dose: 39.0 mg/kg/injection, schedule: Q04DX003 (ip), vehicle: clinical formulation) was 157 % of control. The T/C (endpoint: mean survival time, dose: 39.0 mg/kg/injection, schedule: Q04DX003 (ip), vehicle: saline) was 212 % of control, the T/C (endpoint: mean survival time, dose: 39.0 mg/kg/injection, schedule: Q04DX003 (iv), vehicle: saline) was 87 % of control and the T/C (endpoint: mean survival time, dose: 39.0 mg/kg/injection, schedule: Q08DX002 (ip), vehicle: saline) was 200 % of control. The T/C (endpoint: mean survival time, dose: 40.0 mg/kg/injection, schedule: Q01DX009 (ip), vehicle: saline) was 178 % of control and 188 % of control, the T/C (endpoint: mean survival time, dose: 60.0 mg/kg/injection, schedule: Q01DX015 (ip), vehicle: saline) was 159 % of control and the T/C (endpoint: mean survival time, dose: 65.0 mg/kg/injection, schedule: Q01DX001 (ip), vehicle: saline) was 160 % of control. The T/C (endpoint: mean survival time, dose: 65.0 mg/kg/injection, schedule: Q01DX001 (oral), vehicle: saline) was 109 % of control, the T/C (endpoint: mean survival time, dose: 65.0 mg/kg/injection, schedule: Q01DX003 (ip), vehicle: saline) was 241 % of control and the T/C (endpoint: mean survival time, dose: 65.0 mg/kg/injection, schedule: Q01DX005 (ip), vehicle: saline) was 402 % of control. The T/C (endpoint: mean survival time, dose: 65.0 mg/kg/injection, schedule: Q01DX009 (oral), vehicle: saline) was 106 % of control, the T/C (endpoint: mean survival time, dose: 65.0 mg/kg/injection, schedule: Q04DX003 (ip), vehicle: clinical formulation) was 159 % of control and the T/C (endpoint: mean survival time, dose: 65.0 mg/kg/injection, schedule: Q04DX003 (ip), vehicle: saline) was 299 % of control and 445 % of control. The T/C (endpoint: mean survival time, dose: 65.0 mg/kg/injection, schedule: Q04DX003 (ip), vehicle: water) was 173 % of control, the T/C (endpoint: mean survival time, dose: 65.0 mg/kg/injection, schedule: Q04DX003 (iv), vehicle: saline) was 109 % of control and the T/C (endpoint: mean survival time, dose: 65.0 mg/kg/injection, schedule: Q04DX003 (oral), vehicle: saline) was 120 % of control. For the same compound, the T/C (endpoint: mean survival time, dose: 65.0 mg/kg/injection, schedule: Q08DX002 (ip), vehicle: saline) was 226 % of control, the T/C (endpoint: mean survival time, dose: 80.0 mg/kg/injection, schedule: Q01DX009 (ip), vehicle: saline) was 94 % of control and 122 % of control and the T/C (endpoint: mean survival time, dose: 100.0 mg/kg/injection, schedule: Q01DX001 (ip), vehicle: saline) was 150 % of control. For the same compound, the T/C (endpoint: mean survival time, dose: 108.0 mg/kg/injection, schedule: Q01DX001 (ip), vehicle: saline) was 193 % of control and 337 % of control, the T/C (endpoint: mean survival time, dose: 108.0 mg/kg/injection, schedule: Q01DX001 (oral), vehicle: saline) was 110 % of control and the T/C (endpoint: mean survival time, dose: 108.0 mg/kg/injection, schedule: Q01DX001 (sc), vehicle: saline) was 115 % of control. The T/C (endpoint: mean survival time, dose: 108.0 mg/kg/injection, schedule: Q01DX003 (ip), vehicle: saline) was 247 % of control and 310 % of control, the T/C (endpoint: mean survival time, dose: 108.0 mg/kg/injection, schedule: Q01DX005 (ip), vehicle: saline) was 280 % of control and the T/C (endpoint: mean survival time, dose: 108.0 mg/kg/injection, schedule: Q01DX009 (sc), vehicle: saline) was 93 % of control. The T/C (endpoint: mean survival time, dose: 108.0 mg/kg/injection, schedule: Q04DX003 (ip), vehicle: clinical formulation) was 108 % of control, the T/C (endpoint: mean survival time, dose: 108.0 mg/kg/injection, schedule: Q04DX003 (ip), vehicle: saline) was 267 % of control and 422 % of control and the T/C (endpoint: mean survival time, dose: 108.0 mg/kg/injection, schedule: Q04DX003 (ip), vehicle: water) was 100 % of control. The T/C (endpoint: mean survival time, dose: 108.0 mg/kg/injection, schedule: Q04DX003 (iv), vehicle: saline) was 113 % of control, the T/C (endpoint: mean survival time, dose: 180.0 mg/kg/injection, schedule: Q01DX001 (ip), vehicle: saline) was 246 % of control and the T/C (endpoint: mean survival time, dose: 180.0 mg/kg/injection, schedule: Q01DX001 (oral), vehicle: saline) was 120 % of control. For the same compound, the T/C (endpoint: mean survival time, dose: 180.0 mg/kg/injection, schedule: Q01DX001 (sc), vehicle: saline) was 115 % of control, the T/C (endpoint: mean survival time, dose: 180.0 mg/kg/injection, schedule: Q01DX003 (ip), vehicle: saline) was 95 % of control and 103 % of control and the T/C (endpoint: mean survival time, dose: 180.0 mg/kg/injection, schedule: Q04DX003 (iv), vehicle: saline) was 118 % of control. For the same compound, the T/C (endpoint: mean survival time, dose: 180.0 mg/kg/injection, schedule: Q04DX003 (oral), vehicle: saline) was 95 % of control, the T/C (endpoint: mean survival time, dose: 180.0 mg/kg/injection, schedule: Q08DX002 (ip), vehicle: saline) was 421 % of control and the T/C (endpoint: mean survival time, dose: 200.0 mg/kg/injection, schedule: Q01DX001 (ip), vehicle: saline) was 157 % of control and 176 % of control and 200 % of control. The T/C (endpoint: median survival time, dose: 12.5 mg/kg/injection, schedule: Q01DX009 (ip), vehicle: saline) was 115 % of control, the T/C (endpoint: median survival time, dose: 23.0 mg/kg/injection, schedule: Q01DX005 (ip), vehicle: saline) was 122 % of control and the T/C (endpoint: median survival time, dose: 25.0 mg/kg/injection, schedule: Q01DX009 (ip), vehicle: saline) was 150 % of control. For the same compound, the T/C (endpoint: median survival time, dose: 39.0 mg/kg/injection, schedule: Q01DX005 (ip), vehicle: saline) was 155 % of control, the T/C (endpoint: median survival time, dose: 39.0 mg/kg/injection, schedule: Q01DX005 (sc), vehicle: saline) was 122 % of control and the T/C (endpoint: median survival time, dose: 39.0 mg/kg/injection, schedule: Q01DX009 (ip), vehicle: saline) was 150 % of control. For the same compound, the T/C (endpoint: median survival time, dose: 50.0 mg/kg/injection, schedule: Q01DX009 (ip), vehicle: saline) was 180 % of control, the T/C (endpoint: median survival time, dose: 50.0 mg/kg/injection, schedule: Q04DX003 (ip), vehicle: saline) was 161 % of control and the T/C (endpoint: median survival time, dose: 65.0 mg/kg/injection, schedule: Q01DX005 (ip), vehicle: saline) was 155 % of control. The T/C (endpoint: median survival time, dose: 65.0 mg/kg/injection, schedule: Q01DX009 (ip), vehicle: saline) was 100 % of control and 115 % of control, the T/C (endpoint: median survival time, dose: 65.0 mg/kg/injection, schedule: Q04DX003 (ip), vehicle: saline) was 155 % of control and the T/C (endpoint: median survival time, dose: 100.0 mg/kg/injection, schedule: Q04DX003 (ip), vehicle: saline) was 177 % of control and 666 % of control. For the same compound, the T/C (endpoint: median survival time, dose: 108.0 mg/kg/injection, schedule: Q01DX001 (ip), vehicle: saline) was 155 % of control, the T/C (endpoint: median survival time, dose: 108.0 mg/kg/injection, schedule: Q01DX005 (ip), vehicle: saline) was 100 % of control and the T/C (endpoint: median survival time, dose: 108.0 mg/kg/injection, schedule: Q01DX005 (sc), vehicle: saline) was 88 % of control. The T/C (endpoint: median survival time, dose: 108.0 mg/kg/injection, schedule: Q04DX003 (ip), vehicle: saline) was 188 % of control and the T/C (endpoint: median survival time, dose: 200.0 mg/kg/injection, schedule: Q04DX003 (ip), vehicle: saline) was 100 % of control.
`CNC(=N)c1ccc(NC(=N)c2ccc(NC(=O)c3ccc(C(=O)Nc4ccc(C(=N)Nc5ccc(C(=N)NC)cc5)cc4)cc3)cc2)cc1` was tested, and the T/C (endpoint: mean survival time, dose: 6.25 mg/kg/injection, schedule: Q01DX Z (ip), vehicle: carboxymethylcellulose (CMC)) was 124 % of control and the T/C (endpoint: mean survival time, dose: 100.0 mg/kg/injection, schedule: Q01DX Z (ip), vehicle: carboxymethylcellulose (CMC)) was 119 % of control.
With `O=C1O/C(=C/Br)C=C1Br` the T/C (endpoint: mean survival time, dose: 3.12 mg/kg/injection, schedule: Q04DX003 (ip), vehicle: saline with Tween-80) was 95 % of control, the T/C (endpoint: mean survival time, dose: 6.25 mg/kg/injection, schedule: Q04DX003 (ip), vehicle: saline with Tween-80) was 92 % of control and the T/C (endpoint: mean survival time, dose: 12.5 mg/kg/injection, schedule: Q04DX003 (ip), vehicle: saline with Tween-80) was 92 % of control. The T/C (endpoint: mean survival time, dose: 12.5 mg/kg/injection, schedule: Q04DX003 (ip), vehicle: saline) was 100 % of control and the T/C (endpoint: mean survival time, dose: 25.0 mg/kg/injection, schedule: Q04DX003 (ip), vehicle: saline) was 97 % of control.
